Data as given in patent US5066658A, “Substituted hydroxyureas” (Ortho Pharmaceutical Corporation, priority 1990, dated 1991).

Assays:
[1] = tested on: Arachidonate-Induced Bronchospasm (cyclooxygenase); test: Pulmonary Mechanics Assay: arachidonate-induced bronchospasm without indomethacin (indicative of cyclooxygenase inhibition); format: in vivo, male Hartley guinea pigs; conditions: Cavia porcellus, guinea pig; for inhibition in vivo at 15 mg/kg: IV dosing, read-out: Inhibition of Arachidonate-Induced Bronchospasm (IV Dosing), % Inh. without Indomethacin
Procedure: (§1) The bronchodilating activity of the compounds was tested in a pulmonary mechanics assay. Basically, male Hartley guinea pigs (about 400-500 g) were anesthetized with urethane (2 g/kg, i.p.) and placed in a whole body Plethysmograph. Cannulations of a jugular vein and carotid artery were performed for compound administration and monitoring blood pressure, respectively. The trachea was cannulated for respiration at a constate volume via a miniature starling pump. A Validyne differential pressure transducer (±20 cm H2 O) sensed transpleural pressure via a 15 gauge needle inserted into the pleural cavity and a sidearm from the tracheal cannula. Tidal volume was sensed by another Validyne differential pressure transducer (±2 cm H2 O) from pressure changes inside the plethysmograph. An on-line Buxco pulmonary mechanics computer calculated air flow, dynamic lung compliance and lung resistance. The values were recorded on a print-out.
(§2) The guinea pigs were pretreated with succinyl choline (1.2 mg/kg, i.v.) to arrest spontaneous respiration. A control challenge of arachidonic acid (0.5-1.0 mg/kg, i.v.) was administered, and the animals were then dosed with the test compound by various routes. At least 10 minutes were allowed to expire between arachidonic acid challenges. A second challenge was given and compared to the control response. This comparison was indicative of cyclooxygenase inhibition. Indomethacin (10 mg/kg, i.v.) was administered immediately after the second challenge. A third challenge of a higher dose of arachidonic acid (5-10 mg/kg, i.v.) was given. This response was induced by SRS-A and compared to the responses elicited by a separate control group of animals. Activity was indicative of lipoxygenase inhibition. Propranolol (0.005 mg/kg. i.v.) may be given prior to the third challenge to enhance the response to SRS-A.
(§3) Bronchoconstriction induced by arachidonic acid with or without indomethacin was expressed as maximum percent change in dynamic lung compliance (Cdyn) and maximum percent increase in lung resistance (RL). Each guinea pig served as its own control for cyclooxygenase evaluation. The results are shown in Table I and are expressed as the percent inhibition of control.

[2] = tested on: Arachidonate-Induced Bronchospasm (lipoxygenase); test: Pulmonary Mechanics Assay: arachidonate-induced bronchospasm with indomethacin (SRS-A response, indicative of lipoxygenase inhibition); format: in vivo, male Hartley guinea pigs; conditions: Cavia porcellus, guinea pig; for inhibition in vivo at 15 mg/kg: IV dosing, read-out: Inhibition of Arachidonate-Induced Bronchospasm (IV Dosing), % Inh. with Indomethacin
Procedure: as §1, §2, §3

5-lipoxygenase = target: T1, 5-lipoxygenase (Rattus norvegicus, UniProt P12527); test: Inhibition of 5-lipoxygenase in cell-free homogenate of rat basophilic leukemia (RBL-1) cells; format: biochemical; conditions: 3 μM; RBL-1 cell-free homogenate; read-out: Inhibition of 5-Lipoxygenase, % Inh. @ 3 μM
T1 construct: The cell-free homogenate was prepared by sonication of the cells followed by centrifugation at 40,000 xg; endogenous in cells; host or cells: RBL-1 (rat basophilic leukemia) cells, 40,000 xg supernatant of the sonicate
T1 sequence (P12527 1-673): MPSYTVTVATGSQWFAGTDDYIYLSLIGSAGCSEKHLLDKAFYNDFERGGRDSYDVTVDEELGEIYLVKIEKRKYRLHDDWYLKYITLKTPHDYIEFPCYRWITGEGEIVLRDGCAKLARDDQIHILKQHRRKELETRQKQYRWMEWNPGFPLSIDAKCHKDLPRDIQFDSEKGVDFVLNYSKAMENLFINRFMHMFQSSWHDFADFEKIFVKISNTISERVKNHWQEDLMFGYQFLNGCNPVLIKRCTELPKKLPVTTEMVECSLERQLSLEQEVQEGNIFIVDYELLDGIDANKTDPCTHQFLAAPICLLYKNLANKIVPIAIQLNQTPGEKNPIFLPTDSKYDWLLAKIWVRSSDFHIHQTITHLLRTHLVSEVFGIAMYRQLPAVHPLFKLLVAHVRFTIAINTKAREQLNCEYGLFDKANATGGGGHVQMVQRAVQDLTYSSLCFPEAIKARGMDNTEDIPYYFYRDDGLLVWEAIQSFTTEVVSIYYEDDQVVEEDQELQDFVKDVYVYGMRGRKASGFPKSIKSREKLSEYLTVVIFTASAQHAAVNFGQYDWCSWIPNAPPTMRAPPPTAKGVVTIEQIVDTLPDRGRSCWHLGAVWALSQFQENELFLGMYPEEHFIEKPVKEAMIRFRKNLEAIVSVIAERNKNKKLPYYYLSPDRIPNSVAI
Procedure: The inhibition of 5-lipoxygenase was tested in a cell-free homogenate by the procedure of B. Jakschik et al., Biochem.Biophys.Res.Comm. 95, 103 (1980). Basically, rat basophilic leukemia cells (RBL-1 cells) were maintained in culture in a suitable medium, and were collected by centrifugation prior to assay. The cell-free homogenate was prepared by sonication of the cells followed by centrifugation at 40,000 xg. The CaCl2 dependent production of lipoxygenase products from ^14 C-arachidonic acid in the 40,000 xg supernatant was monitored in the presence of buffer (or other vehicle) or drug. Products were isolated by acidification and extraction, followed by thin layer chromatography. Radioactive areas corresponding to the authentic lipoxygenase products were quantitated by liquid scintillation counting. Data was reported as the IC50, the concentration causing 50% inhibition of the generation of lipoxygenase products. The results are shown it Table I as the percent inhibition at 3 μM or the amount of compound necessary to cause 50% inhibition.

[3] = ID dosing, read-out: Inhibition of Arachidonate-Induced Bronchospasm (ID Dosing), % Inh. without Indomethacin
[4] = ID dosing, read-out: Inhibition of Arachidonate-Induced Bronchospasm (ID Dosing), % Inh. with Indomethacin

SMILES | inhibition at 3 µM (5-lipoxygenase) | also measured
CN(O)C(=O)NCc1ccc(-c2ccccc2)cc1 [Example 30, N-([1,1'-Biphenyl]-4-ylmethyl)N'hydroxy-N'methylurea] | 74% | inhibition in vivo at 50 mg/kg [1, 3]: < 20%; inhibition in vivo at 50 mg/kg [2, 4]: < 20%
COc1ccc(CC(C)NC(=O)N(C)O)cc1OC (stereo not shown) [Example 54, N-[2-(3,4-Dimethoxyphenyl)-1-methylethyl]-N'-hydroxy-N'-methylurea] | 8% | 
COc1ccc(OC)c(CCNC(=O)N(C)O)c1 [Example 47, N-[2-(2,5-Dimethoxyphenyl)ethyl]-N'-hydroxy-N'-methylurea] | 56% | 
COc1cc(CCNC(=O)N(C)O)ccc1OCc1ccccc1 [Example 68, N-[2-(4-Benzyloxy-3-methoxyphenyl)ethyl]-N'-hydroxy-N'-methylurea] | 69% | inhibition in vivo at 50 mg/kg [1, 3]: < 20%; inhibition in vivo at 50 mg/kg [2, 4]: 28%
COc1ccc(CCNC(=O)N(O)C(C)C)cc1OC [Example 41, N-[2-(3,4-Dimethoxyphenyl)ethyl]-N'-hydroxy-N'-(1-methylethyl)urea] | 95% | inhibition in vivo at 50 mg/kg [1, 3]: < 20%; inhibition in vivo at 15 mg/kg [1]: 42%; inhibition in vivo at 50 mg/kg [2, 4]: 30%; inhibition in vivo at 15 mg/kg [2]: 70%
COc1ccc(CCN(C)C(=O)N(C)O)cc1OC [Example 53, N-[2-(3,4-Dimethyoxyphenyl)ethyl]-N'-hydroxy-N,N'-dimethylurea] | 0% | inhibition in vivo at 25 mg/kg ([1]; ID dosing, 25 mg/kg, read-out: Inhibition of Arachidonate-Induced Bronchospasm (ID Dosing), % Inh. without Indomethacin): 52%; inhibition in vivo at 15 mg/kg [1]: 79%; inhibition in vivo at 25 mg/kg ([2]; ID dosing, 25 mg/kg, read-out: Inhibition of Arachidonate-Induced Bronchospasm (ID Dosing), % Inh. with Indomethacin): 71%; inhibition in vivo at 15 mg/kg [2]: 51%
CCCCCCN(O)C(=O)N(C)C [Example 10, N,N-Dimethyl-N'-hexyl-N'-hydroxyurea] | 100% | 
COc1ccc(CCN(CC(C)C)C(=O)N(C)O)cc1OC [Example 64, N-[2-(3,4-Dimethoxyphenyl)ethyl]-N'-hydroxy-N'-methyl-N-(2-methylpropyl)urea] | 33% | 
CN(O)C(=O)N1CCC(C(c2ccccc2)c2ccccc2)CC1 [Example 75, 4-(Diphenylmethyl)-N-hydroxy-N-methylpiperidine-1-carboxamide] | 44% | 
COc1cc2c(cc1OC)CC(NC(=O)N(C)O)C2 [Example 57, N-(5,6-Dimethoxyindan-2-yl)-N'-hydroxy-N'-methylurea] | 55% | 
C=CCOc1ccc(CCNC(=O)N(C)O)cc1OC [Example 55] | 42% | inhibition in vivo at 50 mg/kg [1, 3]: -68%; inhibition in vivo at 15 mg/kg [1]: 56%; inhibition in vivo at 50 mg/kg [2, 4]: 56%; inhibition in vivo at 15 mg/kg [2]: 83%
CN(O)C(=O)NCCc1ccc2c(c1)OCCO2 [Example 46, N-[2-(Benzo-1,4-dioxan-6-yl)ethyl]-N'-hydroxy-N'-methylurea] | 42% | 
COc1cc2c(cc1OC)C(CNC(=O)N(C)O)CC2 (stereo not shown) [Example 60, N-[(5,6-Dimethoxyindan-1-yl)methyl]-N'-hydroxy-N'-methylurea] | 51% | inhibition in vivo at 15 mg/kg [1]: 48%; inhibition in vivo at 15 mg/kg [2]: 67%
COc1ccc(CCNC(=O)N(C)O)c(OC)c1 [Example 49, N-[2-(2,4-Dimethoxyphenyl)ethyl]-N'-hydroxy-N'-methylurea] | 99% | inhibition in vivo at 15 mg/kg [1]: 39%; inhibition in vivo at 15 mg/kg [2]: 67%
COc1cc(CCNC(=O)N(C)O)cc(OC)c1 [Example 48, N-[2-(3,5-Dimethoxyphenyl)ethyl]-N'-hydroxy-N'-methylurea] | 42% | 
COc1ccc(CCCN(CCCc2ccc(OC)c(OC)c2)C(=O)N(C)O)cc1OC [Example 63, N,N-Bis-[3-(3,4-dimethoxyphenyl)propyl]-N'-hydroxy-N'-methylurea] | 76% | inhibition in vivo at 50 mg/kg [1, 3]: < 20%; inhibition in vivo at 50 mg/kg [2, 4]: 21%
CN(O)C(=O)NCCc1ccc2c(c1)OCO2 [Example 43, N-[2-(3,4-Methylenedioxy)phenyl)ethyl-N'-hydroxy-N'-methylurea] | 65% | inhibition in vivo at 50 mg/kg [1, 3]: < 20%; inhibition in vivo at 50 mg/kg [2, 4]: < 20%
C=CCCCCCCCCNC(=O)N(C)O [Example 18, N-(9-Decenyl)-N'-methyl-N'-hydroxyurea] | 94% | 
CCCCCCCCCCC1CN(C)C(=O)N(O)C1 (stereo not shown) [Example 29, 5-Decyl-1-hydroxy-3-methyl-3,4,5,6-tetrahydro-lH-pyrimidin-2-one] | 30% | 
CN(O)C(=O)NCCc1cccc(Oc2ccccc2)c1 [Example 76, N-Hydroxy-N-methyl-N'-[2-(3-phenoxyphenyl)ethyl]urea] | 66% | 
COc1ccc(CCN(C(=O)N(C)O)c2ccc(Cl)cc2)cc1OC [Example 67, N-[2-(3,4-Dimethyloxyphenyl)ethyl]-N-(4-chlorophenyl)-N'-methyl-N'-hydroxyurea] | 48% | 
COc1ccc(C2C3CCC(C3)C2NC(=O)N(C)O)cc1OC (stereo not drawn) [Example 59, N-[trans-3-(3,4-Dimethoxyphenyl)bicyclo[2.2.1]-heptan-2-yl]-N '-hydroxy-N'-methylurea] | 39% | 
CCOC(=O)CCCN(O)C(=O)NCCc1ccc(OC)c(OC)c1 [Example 74, N-[2-(3,4-Dimethoxyphenyl)ethyl]-N'-[3-(ethoxycarbonyl)propyl]-N'-hydroxyurea] | 42% | 
COc1ccc(CNC(=O)N(C)O)cc1OC [Example 42, N-[(3,4-Dimethoxyphenyl)methyl]-N'-hydroxy-N'-methylurea] | 28% | 
CCCCC/C=C\C/C=C\C/C=C\C/C=C\CCCNC(=O)N(C)O [Example 22, N-(4,7,10,13-Nonadecatetraenyl)-N'-methyl-N'-hydroxyurea] | 71% | 
COc1cccc(C2CCCN(C(=O)N(C)O)C2)c1 (stereo not shown) [Example 73, N-Hydroxy-3-(3-methoxyphenyl)-N-methylpiperidine-1-carboxamide] | 46% | 
COc1cc(CCNC(=O)N(C)O)cc(OC)c1OC [Example 45, N-[2-(3,4,5-Trimethoxyphenyl)ethyl]-N'-hydroxy-N'-methylurea] | 36% | 
C=CCCCCCCCCC(O)CNC(=O)N(C)O (stereo not shown) [Example 21, N-(2-Hydroxy-11-dodecenyl)-N'-methyl-N'-hydroxyurea] | 22% | 
